This series can be described thus: Particle size by laser diffractometry (Malvern Mastersizer 2000). It is filed as physicochemical. Conditions: after milling 30 minutes at 350 rpm in a Retsch ball mill. The method, then: The expression “average particle diameter” relates in the context of this invention to the D50 value of the volume-average particle diameter determined by means of laser diffractometry. In particular, a Malvern Instruments Mastersizer 2000 was used to determine the diameter (wet measurement, 2,000 rpm, ultrasound 60 sec., preferably shading 4 to 13%, preferably dispersion in liquid paraffin, the evaluation using the Fraunhofer method). The average particle diameter, which is also referred to as the D50 value of the integral volume distribution, is defined in the context of this invention as the particle diameter at which 50% by volume of the particles have a smaller diameter than the diameter which corresponds to the D50 value. Similarly, 50% by volume of the particles than have a larger diameter than the D50 value. Analogously, the D10 value of the integral volume distribution is defined as the particle diameter at which 10% by volume of the particles have a smaller diameter than the diameter which corresponds to the D10 value. Accordingly, the D90 value of the integral volume distribution is defined as the particle diameter at which 90% by volume of the particles have a smaller diameter than the diameter which corresponds to the D90 value.

Structures are written as SMILES.

As for `COC(c1ccccc1)(c1ccccc1)[C@H](Oc1nc(C)cc(C)n1)C(=O)O` [Example 3, (2S)-2-(4,6-dimethylpyrimidin-2-yl)oxy-3-methoxy-3,3-di(phenyl)propanoic acid], the “particle size d10” value worked out at 5 μm, the “particle size d50” value amounted to 18 μm and the “particle size d90” value is 63 μm.

Source of the values: US20110189243A1, “PHARMACEUTICAL FORMULATION FOR LOWERING PULMONARY BLOOD PRESSURE” (Ratiopharm GMBH, priority 2008, published 2011).
